According to publication PMC11042424, “Development of a First-in-Class RIPK1 Degrader to Enhance Antitumor Immunity” (Research Square, 2024):
Entries after “also recorded” stand apart in the source; their conditions may differ.

Test system: whole cellular proteome of MDA-MB-231 cells
Experiment: Proteome profiling of LD4172 induced protein degradation
Type: cell-based, human
Conditions: 200 nM, 6 h
Procedure: One million MDA-MB-231 cells were seeded in 6-well plates. The following day, cells were treated in triplicate with LD4172 (200 nM) or LD4172-NC (200 nM) for 6 h. The cells were washed thrice with ice-cold PBS. The cell pellets were lysed, reduced, alkylated, and digested using EasyPep™ MS Sample Prep Kits (A45733,ThermoFisher) according to the manufacturer’s instructions. The same amount of peptide from each condition was labeled with a tandem mass tag (TMT) reagent (90113, ThermoFisher). The 10-plex TMT reagent was incubated with each peptide sample at a ratio of 1:8 (peptide:TMT label). The 10-plex labeling reactions were performed for 1 h at room temperature. The labeled peptide samples were quenched by adding 50 μL of 5% hydroxylamine and 20% formic acid solution for 5 min and then mixed. […]
Proteome Discoverer 2.4 (Thermo Fisher Scientific) was used. RAW file processing and controlling peptide- and protein-level false discovery rates, assembling proteins from peptides, and protein quantification from peptides. […] PSMs with precursor isolation interference values > 50% and average TMT-reporter ion signal-to-noise values (S/N) < 10 were excluded from quantitation. […] Protein quantification uses both unique and […] peptides. […]

Cc1ncsc1-c1ccc([C@H](C)NC(=O)[C@@H]2C[C@@H](O)CN2C(=O)[C@@H](NC(=O)CCCCCCCCCCC(=O)NCCCn2cc(-c3ccc4c(c3)CCN4C(=O)Cc3cccc(OC(F)(F)F)c3)c3c(N)ncnc32)C(C)(C)C)cc1 [LD4172]
degradation of off-target kinases: no degradation of off-target kinases was observed
proteins degraded in whole cellular proteome (vs LD4172-NC): only protein showing >50% degradation; also recorded: RIPK1 was the only protein degraded
